# Experimental data taken from patent publication US20230085307A1, “PYRIDAZINONE COMPOUND AND HERBICIDE” (NISSAN CHEMICAL CORPORATION, priority 2019, published 2023).
# Tests used:
# [1] = test system: late watergrass; assay: Test Example 1: herbicidal activity, application before weed generation under submerged conditions (Table 16, symbol A); format: in vivo, late watergrass (Echinochloa oryzicola); conditions: 320 g/ha applied herbicide
# How it was run: (§1)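 Emulsion formulation, water-diluted to set dose, was put onto the flooded surface (4 cm depth, alluvial soil) the same day weeds were sown and 2.5-leaf rice transplanted. After 3 weeks at 25-30 °C under glass, each species was rated 0 (≤5% kill) to 5 (≥90% kill).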
# [2] = test system: Japanese bulrush; assay: Test Example 1: herbicidal activity, application before weed generation under submerged conditions (Table 16, symbol B); format: in vivo, Japanese bulrush (Schoenoplectus juncoides); conditions: 320 g/ha applied herbicide
# How it was run: as §1
# [3] = test system: oval-leafed pondweed; assay: Test Example 1: herbicidal activity, application before weed generation under submerged conditions (Table 16, symbol C); format: in vivo, oval-leafed pondweed (Monochoria vaginalis); conditions: 320 g/ha applied herbicide
# How it was run: as §1
# [4] = test system: late watergrass; assay: Test Example 2: herbicidal activity, application during weed generation under submerged conditions (Table 17, symbol A); format: in vivo, late watergrass (Echinochloa oryzicola); conditions: AAH 320 g/ha; application during weed generation, submerged conditions
# How it was run: (§2)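 Alluvial soil in Wagner pots was flooded to 4 cm depth and sown with the three weeds together; pots were kept in a greenhouse at 25° C. to 30° C. At the one to two leaf stage, an emulsion formulation diluted in water to a set rate went onto the water surface; scored three weeks later.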
# [5] = test system: Japanese bulrush; assay: Test Example 2: herbicidal activity, application during weed generation under submerged conditions (Table 17, symbol B); format: in vivo, Japanese bulrush (Schoenoplectus juncoides); conditions: AAH 320 g/ha; application during weed generation, submerged conditions
# How it was run: as §2
# [6] = test system: oval-leafed pondweed; assay: Test Example 2: herbicidal activity, application during weed generation under submerged conditions (Table 17, symbol C); format: in vivo, oval-leafed pondweed (Monochoria vaginalis); conditions: AAH 320 g/ha; application during weed generation, submerged conditions
# How it was run: as §2
# [7] = test system: barnyard grass; assay: Test Example 3: herbicidal effect by foliage application, Wagner pot (Table 18, symbol H); format: in vivo, barnyard grass (Echinochloa crus-galli)
# How it was run: (§3)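 Plants were sown in alluvial soil held under 0.1–0.5 cm standing water and grown 14 days in a greenhouse at 25–30 °C. An emulsifiable formulation, water-diluted to the set dose, was then sprayed onto the foliage, and effects were scored three weeks later using previously defined criteria.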
# [8] = test system: Chinese sprangletop; assay: Test Example 3: herbicidal effect by foliage application, Wagner pot (Table 18, symbol D); format: in vivo, chinese sprangletop (Leptochloa chinensis)
# How it was run: as §3
# [9] = test system: rice flat sedge; assay: Test Example 3: herbicidal effect by foliage application, Wagner pot (Table 18, symbol E); format: in vivo, rice flat sedge (Cyperus iria)
# How it was run: as §3
# [10] = test system: southern crabgrass; assay: Test Example 4: herbicidal effect by soil treatment (Table 19, symbol F); format: in vivo, southern crabgrass (Digitaria ciliaris); conditions: amount of applied herbicide 320 g/ha
# How it was run: (§4)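 Soil-surface application: an emulsion agent diluted with water to the predetermined dose is sprayed uniformly over seeds lying under roughly 1.5 cm of sterilized diluvial soil. Boxes stay in a greenhouse at 25° C. to 30° C. Three weeks later, each species is graded on previously defined criteria.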
# [11] = test system: green foxtail; assay: Test Example 4: herbicidal effect by soil treatment (Table 19, symbol G); format: in vivo, green foxtail (Setaria viridis); conditions: amount of applied herbicide 320 g/ha
# How it was run: as §4
# [12] = test system: barnyard grass; assay: Test Example 4: herbicidal effect by soil treatment (Table 19, symbol H); format: in vivo, barnyard grass (Echinochloa crus-galli); conditions: amount of applied herbicide 320 g/ha
# How it was run: as §4
# [13] = test system: wild oat; assay: Test Example 4: herbicidal effect by soil treatment (Table 19, symbol I); format: in vivo, wild oat (Avena fatua); conditions: amount of applied herbicide 320 g/ha
# How it was run: as §4
# [14] = test system: blackgrass; assay: Test Example 4: herbicidal effect by soil treatment (Table 19, symbol J); format: in vivo, blackgrass (Alopecurus myosuroides); conditions: amount of applied herbicide 320 g/ha
# How it was run: as §4
# [15] = test system: Italian ryegrass; assay: Test Example 4: herbicidal effect by soil treatment (Table 19, symbol K); format: in vivo, Italian ryegrass (Lolium multiflorum); conditions: amount of applied herbicide 320 g/ha
# How it was run: as §4
# [16] = test system: windgrass; assay: Test Example 4: herbicidal effect by soil treatment (Table 19, symbol L); format: in vivo, windgrass (Apera spica-venti); conditions: amount of applied herbicide 320 g/ha
# How it was run: as §4
# [17] = test system: velvetleaf; assay: Test Example 4: herbicidal effect by soil treatment (Table 19, symbol M); format: in vivo, velvetleaf (Abutilon theophrasti); conditions: amount of applied herbicide 320 g/ha
# How it was run: as §4
# [18] = test system: redroot pigweed; assay: Test Example 4: herbicidal effect by soil treatment (Table 19, symbol N); format: in vivo, redroot pigweed (Amaranthus retroflexus); conditions: amount of applied herbicide 320 g/ha
# How it was run: as §4
# [19] = test system: lambsquarters; assay: Test Example 4: herbicidal effect by soil treatment (Table 19, symbol O); format: in vivo, lambsquarters (Chenopodium album); conditions: amount of applied herbicide 320 g/ha
# How it was run: as §4
# [20] = test system: chickweed; assay: Test Example 4: herbicidal effect by soil treatment (Table 19, symbol P); format: in vivo, common chickweed (Stellaria media); conditions: amount of applied herbicide 320 g/ha
# How it was run: as §4
# [21] = test system: persian speedwell; assay: Test Example 4: herbicidal effect by soil treatment (Table 19, symbol R); format: in vivo, Persian speedwell (Veronica persica); conditions: amount of applied herbicide 320 g/ha
# How it was run: as §4
# [22] = test system: false cleavers; assay: Test Example 4: herbicidal effect by soil treatment (Table 19, symbol Q); format: in vivo, false cleavers (Galium spurium); conditions: amount of applied herbicide 320 g/ha
# Source text: [Test Example 4] Herbicidal Effect Test by Soil Treatment
# Sterilized diluvial soil was placed in a plastic box having a length of 21 cm, a width of 13 cm, and a depth of 7 cm. The seeds of each of southern crabgrass, green foxtail, barnyard grass, wild oat, blackgrass, Italian ryegrass, windgrass, velvetleaf, redroot pigweed, lambsquarters, chickweed, false cleavers, persian speedwell, corn, soybean, rice, wheat, beet, and rapeseed were sowed in a spot-like manner and covered with the soil having a thickness of about 1.5 cm. Subsequently, the emulsion agent of the compound of the present invention prepared according to Formulation Example 2 was diluted with water so as to achieve a predetermined herbicide amount, and the diluted emulsion agent was uniformly applied to the surface of the soil with a small-sized spray. The plastic box was placed in a greenhouse at 25° C. to 30° C. for growth of the plants. Three weeks after the herbicide application, the effect of the herbicide on each plant was evaluated according to the criteria of Test Example 1.
# [23] = test system: southern crabgrass; assay: Test Example 5: herbicidal effect by foliage application, plastic box (Table 20, symbol F); format: in vivo, southern crabgrass (Digitaria ciliaris); conditions: foliage application, 320 g/ha, three weeks after application
# How it was run: (§5)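 Sow seeds spot-wise in sterilized diluvial soil; cover with ~1.5 cm soil. Grow 14 days in greenhouse, 25° C. to 30° C. Spray foliage with emulsion diluted to predetermined amount. Rate effect after 3 weeks.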
# [24] = test system: green foxtail; assay: Test Example 5: herbicidal effect by foliage application, plastic box (Table 20, symbol G); format: in vivo, green foxtail (Setaria viridis); conditions: foliage application, 320 g/ha, three weeks after application
# How it was run: as §5
# [25] = test system: barnyard grass; assay: Test Example 5: herbicidal effect by foliage application, plastic box (Table 20, symbol H); format: in vivo, barnyard grass (Echinochloa crus-galli); conditions: foliage application, 320 g/ha, three weeks after application
# How it was run: as §5
# [26] = test system: wild oat; assay: Test Example 5: herbicidal effect by foliage application, plastic box (Table 20, symbol I); format: in vivo, wild oat (Avena fatua); conditions: foliage application, 320 g/ha, three weeks after application
# How it was run: as §5
# [27] = test system: blackgrass; assay: Test Example 5: herbicidal effect by foliage application, plastic box (Table 20, symbol J); format: in vivo, blackgrass (Alopecurus myosuroides); conditions: foliage application, 320 g/ha, three weeks after application
# How it was run: as §5
# [28] = test system: Italian ryegrass; assay: Test Example 5: herbicidal effect by foliage application, plastic box (Table 20, symbol K); format: in vivo, Italian ryegrass (Lolium multiflorum); conditions: foliage application, 320 g/ha, three weeks after application
# How it was run: as §5
# [29] = test system: windgrass; assay: Test Example 5: herbicidal effect by foliage application, plastic box (Table 20, symbol L); format: in vivo, windgrass (Apera spica-venti); conditions: foliage application, 320 g/ha, three weeks after application
# How it was run: as §5
# [30] = test system: velvetleaf; assay: Test Example 5: herbicidal effect by foliage application, plastic box (Table 20, symbol M); format: in vivo, velvetleaf (Abutilon theophrasti); conditions: foliage application, 320 g/ha, three weeks after application
# How it was run: as §5
# [31] = test system: lambsquarters; assay: Test Example 5: herbicidal effect by foliage application, plastic box (Table 20, symbol O); format: in vivo, lambsquarters (Chenopodium album); conditions: foliage application, 320 g/ha, three weeks after application
# How it was run: as §5
# [32] = test system: persian speedwell; assay: Test Example 5: herbicidal effect by foliage application, plastic box (Table 20, symbol R); format: in vivo, Persian speedwell (Veronica persica); conditions: foliage application, 320 g/ha, three weeks after application
# How it was run: as §5
# [33] = amount of applied herbicide 320 g/ha
smiles,measurement,setting,value
CCCC(=O)Oc1c(C)nn(C)c(=O)c1-c1c(-c2ccc(C(F)(F)F)cc2F)sc2ccc(F)cc12 [2-355],Herbicidal effect on A: late watergrass (grade 0-5),[1],4 (Herbicidal rate of 70% or more and less than 90%)
same,Herbicidal effect on B: Japanese bulrush (grade 0-5),[2],3 (Herbicidal rate of 40% or more and less than 70%)
same,Herbicidal effect on C: oval-leafed pondweed (grade 0-5),[3],0 (Herbicidal rate of 5% or less (almost no effect))
same,"herbicidal effect rating, A: late watergrass",[4],3 (Herbicidal rate of 40% or more and less than 70%)
same,"herbicidal effect rating, B: Japanese bulrush",[5],3 (Herbicidal rate of 40% or more and less than 70%)
same,"herbicidal effect rating, C: oval-leafed pondweed",[6],3 (Herbicidal rate of 40% or more and less than 70%)
same,herbicidal effect on H: barnyard grass,[7]; [33],5 (Herbicidal rate of 90% or more (almost completely withered))
same,herbicidal effect on D: Chinese sprangletop,[8]; [33],5 (Herbicidal rate of 90% or more (almost completely withered))
same,herbicidal effect on E: rice flat sedge,[9]; [33],5 (Herbicidal rate of 90% or more (almost completely withered))
same,"herbicidal effect, F: southern crabgrass",[10],0 (Herbicidal rate of 5% or less (almost no effect))
same,"herbicidal effect, G: green foxtail",[11],0 (Herbicidal rate of 5% or less (almost no effect))
same,"herbicidal effect, H: barnyard grass",[12],0 (Herbicidal rate of 5% or less (almost no effect))
same,"herbicidal effect, I: wild oat",[13],0 (Herbicidal rate of 5% or less (almost no effect))
same,"herbicidal effect, J: blackgrass",[14],0 (Herbicidal rate of 5% or less (almost no effect))
same,"herbicidal effect, K: Italian ryegrass",[15],4 (Herbicidal rate of 70% or more and less than 90%)
same,"herbicidal effect, L: windgrass",[16],3 (Herbicidal rate of 40% or more and less than 70%)
same,"herbicidal effect, M: velvetleaf",[17],0 (Herbicidal rate of 5% or less (almost no effect))
same,"herbicidal effect, N: redroot pigweed",[18],0 (Herbicidal rate of 5% or less (almost no effect))
same,"herbicidal effect, O: lambsquarters",[19],3 (Herbicidal rate of 40% or more and less than 70%)
same,"herbicidal effect, P: chickweed",[20],3 (Herbicidal rate of 40% or more and less than 70%)
same,"herbicidal effect, R: persian speedwell",[21],3 (Herbicidal rate of 40% or more and less than 70%)
Cc1nn(C)c(=O)c(-c2c(-c3ccc(Cl)cc3)sc3cc(F)c(F)cc23)c1O [5-082],herbicidal effect on barnyard grass (H),[7]; 320 g/ha,5 (Herbicidal rate of 90% or more (almost completely withered))
same,herbicidal effect on Chinese sprangletop (D),[8]; 320 g/ha,4 (Herbicidal rate of 70% or more and less than 90%)
same,herbicidal effect on rice flat sedge (E),[9]; 320 g/ha,4 (Herbicidal rate of 70% or more and less than 90%)
same,"F: southern crabgrass, herbicidal effect grade",[10],0 (Herbicidal rate of 5% or less (almost no effect))
same,"G: green foxtail, herbicidal effect grade",[11],1 (Herbicidal rate of 5% or more and less than 20%)
same,"H: barnyard grass, herbicidal effect grade",[12],0 (Herbicidal rate of 5% or less (almost no effect))
same,"I: wild oat, herbicidal effect grade",[13],0 (Herbicidal rate of 5% or less (almost no effect))
same,"J: blackgrass, herbicidal effect grade",[14],0 (Herbicidal rate of 5% or less (almost no effect))
same,"K: Italian ryegrass, herbicidal effect grade",[15],4 (Herbicidal rate of 70% or more and less than 90%)
same,"L: windgrass, herbicidal effect grade",[16],4 (Herbicidal rate of 70% or more and less than 90%)
same,"M: velvetleaf, herbicidal effect grade",[17],0 (Herbicidal rate of 5% or less (almost no effect))
same,"N: redroot pigweed, herbicidal effect grade",[18],4 (Herbicidal rate of 70% or more and less than 90%)
same,"O: lambsquarters, herbicidal effect grade",[19],3 (Herbicidal rate of 40% or more and less than 70%)
same,"Q: false cleavers, herbicidal effect grade",[22],3 (Herbicidal rate of 40% or more and less than 70%)
same,herbicidal effect on southern crabgrass (F),[23],3 (Herbicidal rate of 40% or more and less than 70%)
same,herbicidal effect on green foxtail (G),[24],3 (Herbicidal rate of 40% or more and less than 70%)
same,herbicidal effect on barnyard grass (H),[25],4 (Herbicidal rate of 70% or more and less than 90%)
same,herbicidal effect on wild oat (I),[26],3 (Herbicidal rate of 40% or more and less than 70%)
same,herbicidal effect on blackgrass (J),[27],3 (Herbicidal rate of 40% or more and less than 70%)
same,herbicidal effect on Italian ryegrass (K),[28],5 (Herbicidal rate of 90% or more (almost completely withered))
same,herbicidal effect on windgrass (L),[29],5 (Herbicidal rate of 90% or more (almost completely withered))
same,herbicidal effect on velvetleaf (M),[30],5 (Herbicidal rate of 90% or more (almost completely withered))
same,herbicidal effect on lambsquarters (O),[31],5 (Herbicidal rate of 90% or more (almost completely withered))
same,herbicidal effect on persian speedwell (R),[32],5 (Herbicidal rate of 90% or more (almost completely withered))
